Assay results: patent US20230391781A1, “MALT1 MODULATORS AND USES THEREOF” (Rheos Medicines, Inc., priority 2020, published 2023)

Assays:
full length MALT1 = full length MALT1 (Homo sapiens (Human), UniProt Q9UDY8); assay: MALT1 Biochemical Assay; settings: 15 nM enzyme, 30 μM peptide substrate Ac-Leu-Arg-Ser-Arg-Rh110-dPro, 30 min pre-incubation, 60 min reaction; mean value if tested more than once
Method: Inhibitor potency was evaluated by measuring enzymatic activity of full length MALT1 at varying concentrations of compound. The enzymatic assay consists of a single substrate reaction that monitors the release of a fluorescent dye upon cleavage of the peptide substrate. […] The assay buffer consists of 50 mM Hepes, pH 7.5, 0.8 M sodium citrate, 1 mM DTT, 0.004% tween-20, and 0.005% bovine serum albumin (BSA). […] The reaction was quenched after 60 minutes with the addition of iodoacetate at a final concentration of 10 mM. Total fluorescence was measured using an Envision (PerkinElmer) with fluorescence excitation at 485 nm and emission at […].
For potency determination, 1 μL of serially diluted compound (in 100% DMSO) was pre-incubated with 40 μL of enzyme for 30 minutes. The reaction was initiated with the addition of 10 μL of peptide substrate. The relative fluorescence units were transformed to percent inhibition by using 0% and 100% inhibition controls as reference. […] IC50 values were calculated by fitting the concentration-response curves to a four-parameter logistic equation in GraphPad Prism.

[1] = tested on: IL-2 in Jurkat (ATCC, clone E6.1) cells stimulated with anti-CD3/28/2; assay: Jurkat IL-2 Assay; assay type: cell-based; settings: Homo sapiens; IL-2 inhibition, Jurkat cells, 30 min compound then anti-CD3/28/2 stimulation for 24 hours; mean value if tested more than once; read-out: IC50
Method: Inhibition was determined in a cell-based assay using Jurkat (ATCC, clone E6.1), an immortalized T-cell line, exposed to a dose response of compound and assessed for viability, and Il-2 inhibition by ELISA. Cells were cultured in RPMI/10% FBS (Invitrogen 11875093, Atlanta Biologicals S12450H), maintained below 3E6/mL and only used in assays while below passage 25. Compounds were stamped by ECHO onto 384w plates (PerkinElmer Culturplate, 6007680). The cells were plated in fresh media on top of compound and incubated for 30 minutes before stimulation with soluble anti-CD3/28/2 (Stemcell, 10970) for 24 hours. Supernatant was collected and assessed for Il-2 (MSD, 384w, L21SA-1). To assess viability of cells treated with compound, cells were lysed with CTG reagent (Promega, G7570), and measured by luminometer. […] IC50s calculated using 4-parameter fit in GraphPad Prism.
In this table, “A” indicates IC50 of less than 0.1 μM; “B” indicates IC50 from 0.1 μM up to 1 μM; and “C” indicates IC50 of greater than 1 μM. “N/A” indicates not tested. For a compound that was tested in more than one experiment, the result shown represents the mean value.

full length MALT1, sequence (Q9UDY8 whole entry): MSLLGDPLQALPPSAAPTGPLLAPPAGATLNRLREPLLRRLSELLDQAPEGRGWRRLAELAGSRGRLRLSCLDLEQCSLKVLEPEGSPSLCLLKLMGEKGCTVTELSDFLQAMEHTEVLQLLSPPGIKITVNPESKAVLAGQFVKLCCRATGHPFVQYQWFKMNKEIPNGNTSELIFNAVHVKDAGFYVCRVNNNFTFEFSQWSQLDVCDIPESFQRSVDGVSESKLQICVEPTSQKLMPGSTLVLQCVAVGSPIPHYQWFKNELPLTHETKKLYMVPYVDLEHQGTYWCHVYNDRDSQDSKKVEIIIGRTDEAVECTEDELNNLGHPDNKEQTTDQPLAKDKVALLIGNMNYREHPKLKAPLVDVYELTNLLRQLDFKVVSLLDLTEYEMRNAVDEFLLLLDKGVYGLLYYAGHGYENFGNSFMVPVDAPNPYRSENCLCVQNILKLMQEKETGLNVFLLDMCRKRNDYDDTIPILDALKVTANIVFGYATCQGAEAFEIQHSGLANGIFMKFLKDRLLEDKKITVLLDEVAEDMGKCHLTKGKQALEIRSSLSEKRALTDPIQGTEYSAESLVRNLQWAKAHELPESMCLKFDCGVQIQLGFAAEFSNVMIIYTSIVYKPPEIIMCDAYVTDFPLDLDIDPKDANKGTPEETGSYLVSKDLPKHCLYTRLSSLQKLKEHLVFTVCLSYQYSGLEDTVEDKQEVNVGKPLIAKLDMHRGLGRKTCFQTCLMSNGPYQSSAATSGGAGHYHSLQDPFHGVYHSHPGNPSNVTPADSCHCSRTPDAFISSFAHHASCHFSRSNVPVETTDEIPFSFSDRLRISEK

Row | Compound | IC50 (full length MALT1) [nM] | IC50 [1] [nM]
1 | CO[C@@H](C)c1c(Nc2ccc([C@H](N(C)C(C)=O)C(F)(F)F)cc2)cnc2nc(Cl)nn12 [Compound 1.2, N-[(1S)-1-[4-({2-chloro-7-[(1S)-1-methoxyethyl]-[1,2,4]triazolo[1,5-a]pyrimidin-6-yl}amino)phenyl]-2,2,2-trifluoroethyl]-N-methylacetamide] | 100 to 1000 | 100 to 1000
2 | CO[C@@H](C)c1c(Nc2ccc([C@H](N(C)C(=O)C3CCCCO3)C(F)(F)F)cc2)cnc2nc(Cl)nn12 (stereo partly drawn) [Compound 1.3, N-[(1S)-1-[4-({2-chloro-7-[(1S)-1-methoxyethyl]-[1,2,4]triazolo[1,5-a]pyrimidin-6-yl}amino)phenyl]-2,2,2-trifluoroethyl]-N-methyloxane-2-carboxamide] | 100 to 1000 | 100 to 1000
3 | COC(=O)[C@H]1CC[C@H](C(=O)N(C)[C@@H](c2ccc(Nc3cnc4nc(Cl)nn4c3[C@H](C)OC)cc2)C(F)(F)F)CC1 [Compound 1.4, methyl(1r,4r)-4-{[(1S)-1-[4-({2-chloro-7-[(1S)-1-methoxyethyl]-[1,2,4]triazolo[1,5-a]pyrimidin-6-yl}amino)phenyl]-2,2,2-trifluoroethyl] (methyl)carbamoyl}cyclohexane-1-carboxylate] | 100 to 1000 | 100 to 1000
4 | CO[C@@H](C)c1c(Nc2ccc([C@H](N(C)C(=O)C3CCSCC3)C(F)(F)F)cc2)cnc2nc(Cl)nn12 [Compound 1.5, N-[(1S)-1-[4-({2-chloro-7-[(1S)-1-methoxyethyl]-[1,2,4]triazolo[1,5-a]pyrimidin-6-yl}amino)phenyl]-2,2,2-trifluoroethyl]-N-methylthiane-4-carboxamide] | < 100 | 100 to 1000
5 | CO[C@@H](C)c1c(Nc2ccc([C@H](N(C)C(=O)C3CCOC3)C(F)(F)F)cc2)cnc2nc(Cl)nn12 (stereo partly shown) [Compound 1.6] | < 100 | 100 to 1000
6 | CO[C@@H](C)c1c(Nc2ccc([C@H](N(C)C(=O)C3CCC4(CC3)OCCO4)C(F)(F)F)cc2)cnc2nc(Cl)nn12 [Compound 1.7, N-[(1S)-1-[4-({2-chloro-7-[(1S)-1-methoxyethyl]-[1,2,4]triazolo[1,5-a]pyrimidin-6-yl}amino)phenyl]-2,2,2-trifluoroethyl]-N-methyl-1,4-dioxaspiro[4.5]decane-8-carboxamide] | < 100 | 100 to 1000
7 | CO[C@@H](C)c1c(Nc2ccc([C@H](N(C)C(=O)[C@H]3C[C@H](C#N)C3)C(F)(F)F)cc2)cnc2nc(Cl)nn12 [Compound 1.9, (1r,3S)—N—((S)-1-(4-((2-chloro-7-((S)-1-methoxyethyl)-[1,2,4]triazolo[1,5-a]pyrimidin-6-yl)amino)phenyl)-2,2,2-trifluoroethyl)-3-cyano-N-methylcyclobutane-1-carboxamide] | 100 to 1000 | 100 to 1000
8 | CO[C@@H](C)c1c(Nc2ccc([C@H](N(C)C(=O)C3CCN(C(=O)OC(C)(C)C)CC3)C(F)(F)F)cc2)cnc2nc(Cl)nn12 [Compound 1.10, tert-butyl 4-{[(1S)-1-[4-({2-chloro-7-[(1S)-1-methoxyethyl]-[1,2,4]triazolo[1,5-a]pyrimidin-6-yl}amino)phenyl]-2,2,2-trifluoroethyl](methyl)carbamoyl}piperidine-1-carboxylate] | 100 to 1000 | 100 to 1000
9 | CO[C@@H](C)c1c(Nc2ccc([C@H](N(C)C(=O)C3CCCN(C(=O)OC(C)(C)C)C3)C(F)(F)F)cc2)cnc2nc(Cl)nn12 (stereo partly drawn) [Compound 1.11, Tert-butyl 3-{[(1S)-1-[4-({2-chloro-7-[(1S)-1-methoxyethyl]-[1,2,4]triazolo[1,5-a]pyrimidin-6-yl}amino)phenyl]-2,2,2-trifluoroethyl](methyl)carbamoyl}piperidine-1-carboxylate] | 100 to 1000 | > 1000
10 | CO[C@@H](C)c1c(Nc2ccc([C@H](N(C)C(=O)C3CCN(C(=O)OC(C)(C)C)C3)C(F)(F)F)cc2)cnc2nc(Cl)nn12 (stereo partly drawn) [Compound 1.12, Tert-butyl 3-{[(1S)-1-[4-({2-chloro-7-[(1S)-1-methoxyethyl]-[1,2,4]triazolo[1,5-a]pyrimidin-6-yl}amino)phenyl]-2,2,2-trifluoroethyl](methyl)carbamoyl}pyrrolidine-1-carboxylate] | 100 to 1000 | > 1000
11 | CO[C@@H](C)c1c(Nc2ccc([C@H](N(C)C(=O)C3CCC(CNC(=O)OC(C)(C)C)CC3)C(F)(F)F)cc2)cnc2nc(Cl)nn12 (stereo partly drawn) [Compound 1.13, tert-butyl N-[(4-{[(1S)-1-[4-({2-chloro-7-[(1S)-1-methoxyethyl]-[1,2,4]triazolo[1,5-a]pyrimidin-6-yl}amino)phenyl]-2,2,2-trifluoroethyl](methyl)carbamoyl}cyclohexyl)methyl]carbamate] | 100 to 1000 | 100 to 1000
12 | CO[C@@H](C)c1c(Nc2ccc([C@H](N(C)C(=O)[C@H]3CC[C@H](OC)CC3)C(F)(F)F)cc2)cnc2nc(Cl)nn12 [Compound 1.14, (1r,4S)—N—((S)-1-(4-((2-chloro-7-((S)-1-methoxyethyl)-[1,2,4]triazolo[1,5-a]pyrimidin-6-yl)amino)phenyl)-2,2,2-trifluoroethyl)-4-methoxy-N-methylcyclohexane-1-carboxamide] | < 100 | 100 to 1000
13 | COC(=O)NC1CCC(C(=O)N(C)[C@@H](c2ccc(Nc3cnc4nc(Cl)nn4c3[C@H](C)OC)cc2)C(F)(F)F)CC1 (stereo partly drawn) [Compound 1.16, methyl (4-(((S)-1-(4-((2-chloro-7-((S)-1-methoxyethyl)-[1,2,4]triazolo[1,5-a]pyrimidin-6-yl)amino)phenyl)-2,2,2-trifluoroethyl)(methyl)carbamoyl)cyclohexyl)carbamate] | < 100 | 100 to 1000
14 | CO[C@@H](C)c1c(Nc2ccc([C@H](N(C)C(=O)C3CCC(NC(C)=O)CC3)C(F)(F)F)cc2)cnc2nc(Cl)nn12 (stereo partly drawn) [Compound 1.17, N-[(1S)-1-[4-({2-chloro-7-[(1S)-1-methoxyethyl]-[1,2,4]triazolo[1,5-a]pyrimidin-6-yl}amino)phenyl]-2,2,2-trifluoroethyl]-4-acetamido-N-methylcyclohexane1-carboxamide] | < 100 | 100 to 1000
15 | CO[C@@H](C)c1c(Nc2ccc(C(C)N(C)C(=O)C3CCC3)cc2)cnc2nc(Cl)nn12 (stereo partly drawn) [Compound 1.20, N-{1-[4-({2-chloro-7-[(1S)-1-methoxyethyl]-[1,2,4]triazolo[1,5-a]pyrimidin-6-yl}amino)phenyl]ethyl}-N-methylcyclobutanecarboxamide] | > 1000 | > 1000
16 | CO[C@@H](C)c1c(Nc2ccc(C(C)N(C)C(=O)C3CCCCC3)cc2)cnc2nc(Cl)nn12 (stereo partly drawn) [Compound 1.21, N-{1-[4-({2-chloro-7-[(1S)-1-methoxyethyl]-[1,2,4]triazolo[1,5-a]pyrimidin-6-yl}amino)phenyl]ethyl}-N-methylcyclohexanecarboxamide] | > 1000 | > 1000
17 | CO[C@@H](C)c1c(Nc2ccc(C(C)N(C)C(=O)C3CCCC3)cc2)cnc2nc(Cl)nn12 (stereo partly drawn) [Compound 1.22, N-{1-[4-({2-chloro-7-[(1S)-1-methoxyethyl]-[1,2,4]triazolo[1,5-a]pyrimidin-6-yl}amino)phenyl]ethyl}-N-methylcyclopentanecarboxamide] | > 1000 | > 1000
